The text below walks through data of patent US20230310554A1 (priority 2020, published 2023).

Values joined by “and” are separate entries in the source; they are usually repeats but may differ in a detail not shown here. Identical values can stand only once.

For one assay, the system named is PC-12 cells. The format is cell-based, rat. The note with it: for EC50: read-out: EC50 of cyanide under existence of each antidote.
Assay [1] deals with cyanide poisoning mouse models. Set-up: species or system mouse (ddY). To be noted: in vivo.
For assay [2], the system named is plasma proteins such as haptocorrin. The note with it: cited from earlier work.
In assay [3] the test system is cyanide poisoning mouse models. Further details: species or system mouse (ddY). The note with it: in vivo. The source holds these as a separate data set.
For assay [4], the system named is cyanide poisoning mouse models. Further details: species or system mouse (ddY). To be noted: in vivo. This is another data set of the same source.

As for `O=S([O-])([O-])=S.[Na+].[Na+]` [Na2S2O3, sodium thiosulfate], in the assay with PC-12 cells, the “cell viability compared with the control group to which only NaCN had been added” value is on record as “had no effects”; the EC50 is 9.98 mM and 12.5 mM and 12.1 mM and 10.4 mM and 10.7 mM.

Regarding `C/C1=C2/[N-][C@H]([C@H](CC(N)=O)[C@@]2(C)CCC(=O)NC[C@@H](C)OP(=O)([O-])O[C@H]2[C@@H](O)[C@@H](n3cnc4cc(C)c(C)cc43)O[C@@H]2CO)[C@]2(C)N=C(/C(C)=C3N=C(/C=C4N=C1[C@@H](CCC(N)=O)C\4(C)C)[C@@H](CCC(N)=O)[C@]\3(C)CC(N)=O)[C@@H](CCC(N)=O)[C@]2(C)CC(N)=O.[Co+3].[OH-]` [OHCbl, hydroxocobalamin], the “time required until the recovery (coma to awakening)” value in assay [1] is 4.8 min and 4.6 min. For the same compound, the “reduction of antidotal ability by binding to plasma proteins” value in assay [2] was 1/600. Also, the survival rate in assay [3] is 90% and 70% and 60%. For the same compound, the “cell viability compared with the control group to which only NaCN had been added” value in the assay with PC-12 cells is reported as “high survival rate”. In assay [4], this compound came in with a mice survived of 50%.

Regarding “metHb: methemoglobin produced by oxidizing OxyHb with sodium nitrite”, in the assay on PC-12 cells, the “cell viability compared with the control group to which only NaCN had been added” value was “significantly high survival rate”; the EC50 is 23.3 mM and 28.8 mM and 31.1 mM and 19.1 mM.
